Measured values as given in publication PMC12235220, “Cell‐Penetrating Peptide‐Based Triple Nanocomplex Enables Efficient Nuclear Gene Delivery in Chlamydomonas reinhardtii” (Biotechnology and Bioengineering, 2025).

System: C. reinhardtii cells
Assay: Cellular uptake mechanism of triple nanocomplexes with the endocytosis inhibitor wortmannin
Assay type: cell-based, Chlamydomonas reinhardtii
Settings: wortmannin 33 µM pretreatment 1 h, then pVEC-R6A/Cy3-labeled DNA/SV40 nanocomplex 1 h at 25°C; control TAP with 5% DMSO; microplate reader
Experimental: To evaluate the cellular uptake mechanism of the triple nanocomplexes in microalgae, a fluorescence‐based assay was performed with wortmannin (Sigma‐Aldrich, USA) to determine the potential involvement of endocytosis in the process. A volume of 100 µL of C. reinhardtii cells (1.5 × 10^7 cells mL^−1) per well was seeded in a 96‐well plate with wortmannin at a final concentration of 33 µM. Cells treated with TAP medium containing 5% dimethyl sulfoxide were used as controls. […] Finally, the Cy3 fluorescence intensity of the samples was measured at 532 nm using a TECAN microplate reader (Bionics, Korea).

SMILES: COC[C@H]1OC(=O)c2coc3c2[C@@]1(C)C1=C(C3=O)[C@@H]2CCC(=O)[C@@]2(C)C[C@H]1OC(C)=O [wortmannin]
- Reduction of normalized Cy3/chlorophyll a level compared to control: 50%
